Measured values from publication PMC7954794, “Protein context shapes the specificity of SH3 domain-mediated interactions in vivo” (Nature Communications, 2021).

Key:
Format in all cases: cell-based, Saccharomyces cerevisiae
BBC1 = experiment: DHFR-PCA on solid medium, bait BBC1 (Fig. 1B); conditions: bait BBC1, label = prey; for medrep (log2 median colony size normalized to plate background, PCA score): 2-4 replicates; for Ratio (SH3-deleted/WT medrep): only significant differences showed, PPIs completely lost have a ratio of 0.1 and the gained PPIs 2.5
From the text: (§1) Supplement 41467_2021_21873_MOESM8_ESM.xlsx, sheet "Fig1B" | column: medsize; medrep; Ratio; Score

ABP1 = experiment: DHFR-PCA on solid medium, bait ABP1 (Fig. 1B); conditions: bait ABP1, label = prey; 2-4 replicates
From the text: as §1

[1] = tested on: 575 putative partners (preys) of 22 WT SH3-containing proteins; experiment: DHFR-PCA on solid medium, WT and SH3-deleted baits (Fig. 1B); design: key to Score: 0: SH3-independent; 1: SH3-dependent PPIs; 2: SH3-inhibited PPIs; conditions: for medrep (log2 median colony size normalized to plate background, PCA score): label = prey; for Ratio (SH3-deleted/WT medrep): only significant differences shown, PPIs completely lost have a ratio of 0.1, gained PPIs 2.5
From the text: To assess the requirement of SH3 domains for PPIs in vivo, we first measured binary interactions between 22 WT SH3-containing proteins (Supplementary Fig. 1A) as baits and 575 putative partners from their interconnected signaling networks using the dihydrofolate reductase protein–fragment complementation assay (DHFR-PCA) in the budding yeast Saccharomyces cerevisiae. About 33% (202/607) of the PPIs detected were described before, mostly by direct methods (Supplementary Fig. 1B, C)[11]. We repeated the experiments with baits in which the SH3s were individually replaced with a flexible linker by genome editing (SH3 domain deletion/stuffing, Fig. 1A). The stuffer DNA sequence ([…]) codes for a small flexible poly-Gly with Ser peptide ([…]) that is inspired by previous experiments[12],[13]. About a third of the SH3-containing protein interactome is qualitatively or quantitatively SH3-dependent (171 PPIs out of 607, Fig. 1B and Supplementary Fig. 1B, C). We validated the vast majority of the quantitative changes in low-throughput experiments and excluded that this is simply due to changes in protein abundance in most cases (Supplementary Fig. 1D–G). SH3-binding motifs[14] are more frequent in the SH3-dependent PPI partners when compared to sequences from random proteins, SH3-independent PPI partners or PPI partners that are stronger or gained following SH3 deletions (p values = 1.5 × 10^−17, 0.0038 and 2.1 × 10^−08, respectively; Mann–Whitney test, one-tailed, Fig. 1C). The changes we measure are therefore enriched for PPIs that depend on the direct interactions of the domains with the PPI partners.
The complete list of strains, primers, and gRNAs used in this study can be found in Supplementary Tables 1–3. All constructed yeast strains were validated by polymerase chain reaction (PCR) and confirmed by Sanger sequencing of the locus of interest. Bait strains for the DHFR-PCA experiments were constructed as follows. The genes of interest were fused at their genomic 3′ end by replacing the stop codon with a linker ([…]), the DHFR F[1,2] followed by a smaller linker (GGGGS), a 1× FLAG tag ([…]) and the NATMX4 resistance cassette via homologous recombination (all amplified from pAG25-DHFR[1,2]-linker-FLAG). The set of 615 prey strains (DHFR F[3] fusions in the BY4742 background) were retrieved from the Yeast Protein Interactome Collection[43] with the exception of 73 that were reconstructed (Supplementary Tables 1 and 2). Knockout strains were taken from the yeast knockout collection except for ABP1, BEM1, BZZ1, and SLA1, which were reconstructed by replacing the ORFs with the NATMX4 resistance cassette by homologous recombination in the BY4741 background.
Yeast SH3 domain genomic sequences were replaced by CRISPR–Cas9 genome editing. Each SH3 domain (as defined by the SMART database V8.0 except for Ysc84 SH3 (as defined by PROSITE), see Source Data for all SH3 sequences and Supplementary Table 1 for primers used) was specifically targeted by one gRNA[46]. Yeast competent cells were co-transformed with a pCAS plasmid (Addgene plasmid 60847[47]) expressing both the gRNA of interest and Streptococcus pyogenes Cas9[46] and a donor DNA sequence (stuffer) with 60 bp homology arms surrounding the SH3 DNA sequence. The Stuffer DNA was either PCR amplified or digested from a plasmid. The stuffer DNA sequence ([…]) codes for a small flexible linker ([…]) inspired by protein linkers used in structural biology[12],[13]. This type of linker is frequently used for fusing proteins without affecting the structure of the linked proteins.
The overall DHFR-PCA pipeline is based on Tarassov et al.[43] and the procedures have also been published as a visualized protocol. The screens were performed with robotically manipulated pin tools (BM5-SC1, S&P Robotics Inc.). First, the preys were cherry-picked from 96-well plates to omnitrays in a 384 format on YPD + HPH solid media. […]

[2] = bait SLA1-2, DHFR-PCA, Replicates 4 (2 for YCR009C, YDR388W)
[3] = bait SLA1-3, DHFR-PCA, Replicates 4 (2 for YCR009C, YDR388W, YIL033C)

| Substance | medrep (log2 median colony size normalized to plate background, PCA score) (BBC1) | Ratio (SH3-deleted/WT medrep) (BBC1) | medrep (log2 median colony size normalized to plate background, PCA score) (ABP1) | medrep (log2 median colony size normalized to plate background, PCA score) [1, 2] | Score ([1]; bait SLA1-2, label = prey) | Ratio (SH3-deleted/WT medrep) ([1]; bait SLA1-2, label = prey) | medrep (log2 median colony size normalized to plate background, PCA score) [1, 3] | Score ([1]; bait SLA1-3, label = prey) |
| --- | --- | --- | --- | --- | --- | --- | --- | --- |
| YDR388W (ETVTALYDYQAQAAGDLSFPAGAVIEIVQRTPDVNEWWTGRYNGQQGVFPGNYVQLNK) | 1.395 | 0.1 | 4.711 | 1.88 | 1 | 0.1 | 1.88 | 0 |
| YER166W |  |  | 3.035 | 2.422 | 1 | 0.1 | 2.422 | 0 |
| YFR024C-A (PKAVALYSFAGEESGDLPFRKGDVITILKKSDSQNDWWTGRVNGREGIFPANYVELV) | 1.926 | 0.1 | 5.192 |  |  |  | 4.788 | 0 |
| YHR016C (SATPTAVALYNFAGEQPGDLAFKKGDVITILKKSDSQNDWWTGRTNGKEGIFPANYVRVS) |  |  | 4.9581 | 1.614 | 1 | 0.4201 | 3.842 | 0 |
| YIL062C | 4.09 |  | 5.265 |  |  |  | 4.44 | 0 |
| YLR370C | 4.024 |  | 5.077 | 2.335 | 1 | 0.5146 | 4.537 | 0 |
| YNL138W | 2.102 | 0.1 | 5.358 | 2.731 | 1 | 0.1 | 2.731 | 0 |
| YOR181W | 1.945 | 0.4732 | 4.4673 | 2.241 | 1 | 0.4606 | 4.865 | 0 |
| YPR184W |  |  | 3.5 | 2.1199 | 1 | 0.1 | 2.1199 | 0 |
